The first assay addresses T1, acetylcholinesterase (Mus musculus, UniProt P21836).
T1 construct: A mouse brain homogenate was used as an acetylcholinesterase source; from tissue; host or cells: mouse brain homogenate
Description: biochemical. It counts as biochemical.
Conditions: not given
T1 sequence (P21836 32-614): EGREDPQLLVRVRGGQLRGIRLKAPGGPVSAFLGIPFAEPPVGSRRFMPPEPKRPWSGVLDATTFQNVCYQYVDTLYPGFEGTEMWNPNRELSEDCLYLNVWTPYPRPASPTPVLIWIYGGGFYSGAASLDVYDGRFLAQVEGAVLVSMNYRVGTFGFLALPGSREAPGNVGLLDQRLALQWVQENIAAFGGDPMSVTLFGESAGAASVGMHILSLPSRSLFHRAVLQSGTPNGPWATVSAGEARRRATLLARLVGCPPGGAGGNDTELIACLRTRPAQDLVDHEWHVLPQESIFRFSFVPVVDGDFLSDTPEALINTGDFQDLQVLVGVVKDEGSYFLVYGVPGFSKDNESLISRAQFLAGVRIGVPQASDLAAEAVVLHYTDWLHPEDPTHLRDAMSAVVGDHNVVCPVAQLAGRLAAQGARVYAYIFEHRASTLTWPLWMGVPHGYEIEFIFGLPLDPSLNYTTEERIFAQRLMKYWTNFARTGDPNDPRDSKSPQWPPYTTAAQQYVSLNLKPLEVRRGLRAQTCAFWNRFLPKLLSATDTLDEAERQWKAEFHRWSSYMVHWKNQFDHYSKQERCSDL
Molecule `O=C1c2cc(F)ccc2CC1CC1CCN(Cc2ccccc2)CC1` (centres unmarked) [Example 193] yielded an IC50 of 200 nM.
Still for that read-out and setting: to `Cc1ccc2c(c1)C(=O)C(CC1CCN(Cc3ccccc3)CC1)C2` (centres unmarked) [Example 194] belongs 69 nM.
For `Cc1cccc2c1CC(CC1CCN(Cc3ccccc3)CC1)C2=O` (centres unmarked) [Example 195], half-maximal inhibition (IC50) required 7.1 nM.
The same measure, in the same setting: to `COc1cc2c(cc1O)C(=O)C(CC1CCN(Cc3ccccc3)CC1)C2` (centres unmarked) [Example 196] belongs 1.3 nM.
Still for that read-out and setting: to `COc1cc2c(cc1O)CC(CC1CCN(Cc3ccccc3)CC1)C2=O` (centres unmarked) [Example 197] belongs 380 nM.
On the same count and under the same terms, to `CCOc1cc2c(cc1OCC)C(=O)C(CC1CCN(Cc3ccccc3)CC1)C2` (centres unmarked) [Example 198] belongs 5.4 nM; to `O=C1c2cc3c(cc2CC1CC1CCN(Cc2ccccc2)CC1)OCO3` (centres unmarked) [Example 199], 23 nM; to `CC(CC1CCN(Cc2ccccc2)CC1)C(=O)c1ccccc1` (centres unmarked) [Example 202], 1200 nM.
Molecule `COc1cc2c(cc1OC(C)C)CC(CC1CCN(Cc3ccccc3)CC1)C2=O` (centres unmarked) [Example 203] returned an IC50 of 9 nM.
In turn, `COc1cccc2c1CC(=CC1CCN(Cc3ccccc3)CC1)C2=O` [Example 207] showed an IC50 of 49 nM.
On the same count and under the same terms, to `COc1ccc2c(c1OC)CC(=CC1CCN(Cc3ccccc3)CC1)C2=O` [Example 208] belongs 62 nM.
For the molecule `COc1ccc2c(c1OC)C(=O)C(=CC1CCN(Cc3ccccc3)CC1)C2` [Example 209], the IC50 came out at 430 nM.
Same read-out and setting: to `COc1cc2c(c(OC)c1OC)C(=O)C(=CC1CCN(Cc3ccccc3)CC1)C2` [Example 210] belongs 60 nM; to `O=C1C(=CC2CCN(Cc3ccccc3)CC2)Cc2ccc(F)cc21` [Example 211], 2000 nM.
In the case of `Cc1ccc2c(c1)C(=O)C(=CC1CCN(Cc3ccccc3)CC1)C2` [Example 212], half-maximal inhibition (IC50) was put at 500 nM.
Same read-out and setting: to `Cc1cccc2c1CC(=CC1CCN(Cc3ccccc3)CC1)C2=O` [Example 213] belongs 50 nM.
The same measure, in the same setting: to `COc1cc2c(cc1O)C(=O)C(=CC1CCN(Cc3ccccc3)CC1)C2` [Example 214] belongs 8.4 nM.
In turn, `COc1cc2c(cc1OCc1ccccc1)CC(=CC1CCN(Cc3ccccc3)CC1)C2=O` [Example 215] gave an IC50 of 4.2 nM.
Molecule `CCOc1cc2c(cc1OCC)C(=O)C(=CC1CCN(Cc3ccccc3)CC1)C2` [Example 216] came in with an IC50 of 17 nM.
On the same count and under the same terms, to `O=C1C(=CC2CCN(Cc3ccccc3)CC2)Cc2cc3c(cc21)OCO3` [Example 217] belongs 140 nM; to `O=C1C(=CC2CCN(Cc3ccccc3)CC2)CCc2ccccc21` [Example 218], 20000 nM; to `O=C1C(=CC2CCN(Cc3ccccc3)CC2)CCCc2ccccc21` [Example 219], 19000 nM.
Still for that read-out and setting: to `CC(=CC1CCN(Cc2ccccc2)CC1)C(=O)c1ccccc1` [Example 220] belongs 11000 nM.
Same read-out and setting: to `COc1cc2c(cc1OC(C)C)CC(=CC1CCN(Cc3ccccc3)CC1)C2=O` [Example 221] belongs 33 nM; to `COc1cc2c(cc1OC)C(=O)C(=CCCCC1CCN(Cc3ccccc3)CC1)C2` [Example 222], 11 nM.
Molecule `COc1cc2c(cc1OC)C(=O)C(=CCCCCC1CCN(Cc3ccccc3)CC1)C2` [Example 223] registered an IC50 of 5.4 nM.

Still in this assay, the particulars now being: in vitro, mouse brain homogenate; Table 10; read-out: Inhibitory activity on AChE IC50.
Consider `COc1cc2c(c(OC)c1OC)C(=O)C(CC1CCN(Cc3ccccc3)CC1)C2` (centres unmarked) [Example 192], for which the IC50 is 13 nM.

Staying with this assay, now noted: read-out: Inhibitory activity on AChE IC50.
For the molecule `COc1ccc2c(c1)C(=O)C(CC1CCN(Cc3ccccc3)CC1)C2` (centres unmarked) [Example 188], the IC50 worked out at 81 nM.
Turning to `COc1cccc2c1CC(CC1CCN(Cc3ccccc3)CC1)C2=O` (centres unmarked) [Example 189], the IC50 is 12 nM.
`COc1cc2c(cc1OC)C(=O)C(CCCCC1CCN(Cc3ccccc3)CC1)C2` (centres unmarked) [Example 204]: the IC50 turned out to be 35 nM.
On to `COc1cc2c(cc1OC)C(=O)C(CCCCCC1CCN(Cc3ccccc3)CC1)C2` (centres unmarked) [Example 205], for which the IC50 came out at 14 nM.
On the same count and under the same terms, to `COc1ccc2c(c1)C(=O)C(=CC1CCN(Cc3ccccc3)CC1)C2` [Example 206] belongs 410 nM.

The IC50 is the point on the concentration scale where inhibition reaches its midpoint.

The values are drawn from patent US4895841A (priority 1987, dated 1990).
